Measurements reported in BindingDB's records for patent US20250197403 (Achillion Pharmaceuticals, 2025).

Biological target: Complement factor D (Homo sapiens, UniProt P00746)
Test: Human Factor D Assay
Experimental: Human Factor D (purified from human serum, Complement Technology, Inc.) at 80 nM final concentration is incubated with test compound at various concentrations for 5 min at room temperature in 50 mM Tris, 1M NaCl, pH 7.5. A synthetic substrate Z-L-Lys-SBzl and DTNB (Ellman's reagent) are added to final concentrations of 100 μM each. Absorbance at 405 nm (A405) is recorded at 30 second intervals for 30 min using a microplate spectrophotometer. IC50 values are calculated by nonlinear regression of complement Factor D reaction rates as a function of test compound concentration.

Sequence of Complement factor D (P00746 whole entry): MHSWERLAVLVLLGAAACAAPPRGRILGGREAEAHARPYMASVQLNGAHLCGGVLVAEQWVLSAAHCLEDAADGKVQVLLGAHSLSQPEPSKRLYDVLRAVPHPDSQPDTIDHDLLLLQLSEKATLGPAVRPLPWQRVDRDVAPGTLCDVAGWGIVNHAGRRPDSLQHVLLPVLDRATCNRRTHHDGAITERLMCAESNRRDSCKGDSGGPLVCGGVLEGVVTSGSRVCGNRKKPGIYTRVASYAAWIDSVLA

SMILES | IC50 [µM]
COCc1ccc(Br)nc1NC(=O)[C@@H]1C[C@@]2(C)C[C@H]2N1C(=O)Cn1cc(C(C)=O)c2cc(-c3ccc4nc(C)nn4c3)cc(C)c21 [US20250197403, Compound 62] | < 1
CC(=O)c1cn(CC(=O)N2[C@H](C(=O)Nc3nc(C(F)(F)F)ccc3C)C[C@@]3(C)C[C@@H]23)c2c(C)cc(-c3cnc4sc(C)nc4c3)cc12 [US20250197403, Compound 70] | < 1
CC(=O)c1cn(CC(=O)N2[C@H](C(=O)Nc3nc(Br)ccc3C3CC3)C[C@@]3(C)C[C@@H]23)c2c(C)cc(-c3cnc(C)nc3)cc12 [US20250197403, Compound 9] | < 1
CC(=O)c1cn(CC(=O)N2C[C@H]3C[C@H]3[C@H]2C(=O)Nc2nc(C(F)(F)F)ccc2C)c2c(C)cc(-c3cnc4cc(C)nn4c3)cc12 [US20250197403, Compound 1] | < 1
CC(=O)c1cn(CC(=O)N2C[C@@](F)(CF)C[C@H]2C(=O)Nc2nc(C(F)(F)F)ccc2Cl)c2c(C)nc(-c3cnc4cc(C)nn4c3)cc12 [US20250197403, Compound 92] | < 1
CC(=O)c1cn(CC(=O)N2[C@H](C(=O)Nc3cncc(C(F)(F)F)n3)C[C@@]3(C)C[C@@H]23)c2c(C)cc(-c3cnc4cc(C)nn4c3)cc12 [US20250197403, Compound 48] | < 1
